According to patent US11884627B2, “Compounds and compositions for treating conditions associated with LPA receptor activity” (Lhotse Bio, Inc., priority 2022, dated 2024):

Assays:
human LPA1 [1] = target: T1, human LPA1 (Homo sapiens, UniProt Q92633); experiment: In vitro LPA1 functional antagonist assay (calcium mobilization, FLIPR); assay type: cell-based; details: CHO-K1 cells overexpressing human LPA1, Oleoyl LPA challenge at EC80
T1 construct: expressed in transfected cells; host or cells: CHO-K1
Experimental: In Vitro LPA1 Functional Antagonist Assay
CHO-K1 cells overexpressing human LPA1 were seeded in a total volume of 20 μL into black-walled, clear-bottom. Poly-D-lysine coated 384-well microplates and incubated at 37° C., for the appropriate time prior to testing. Assays were performed in 1× Dye Loading Buffer consisting of 1× Dye, 1× Additive A and 2.5 mM Probenecid in HBSS/20 mM Hepes. Probenicid was prepared fresh. Cells were loaded with dye prior to testing. Media was aspirated from cells and replaced with 20 μL Dye Loading Buffer. Cells were incubated for 30-60 minutes at 37° C. After dye loading, cells were removed from the incubator and 10 μL 3× test compound was added. Cells were incubated for 30 minutes at room temperature in the dark to equilibrate plate temperature followed by Oleoyl LPA challenge at EC80. Compound antagonist activity was measured on a FLIPR Tetra (MSD). Calcium mobilization was monitored for 2 minutes and 10 μL Oleoyl LPA in HBSS/20 mM Hepes was added to the cells 5 seconds into the assay. For LPA EC80 determination, after dye loading, cells were removed from the incubator and 10 μL HBSS/20 mM Hepes was added. 3× vehicle was included in the buffer. Cells were incubated for 30 minutes at room temperature in the dark to equilibrate plate temperature. Intermediate dilution of LPA stocks was performed to generate 4×LPA samples in assay buffer. LPA agonist activity was measured on a FLIPR Tetra (MSD). Calcium mobilization was monitored for 2 minutes and 10 μL 4×LPA sample in HBSS/20 mM Hepes was added to the cells 5 seconds into the assay. Compound activity was analyzed using CBIS data analysis suite (ChemInnovation, CA). Percentage inhibition is calculated using the following formula: % Inhibition=100%×(1−(mean RFU of test sample−mean RFU of vehicle control)/(mean RFU of LPA control−mean RFU of vehicle control)).
Table B1 and Table B2 show the biological activity of compounds in in vitro LPA1 functional antagonist assay. Activity of the tested compounds provided in Table B1 is as follows: +++=IC50<1 μM; ++=IC50 1 μM−10 μM; +=IC50>10 μM.

human LPA1 [2] = target: T1, human LPA1; experiment: In vitro LPA1 calcium flux antagonist assay - Bioduro protocol; assay type: cell-based; details: CHO-K1 cells overexpressing human LPA1 and G15a, LPA challenge at EC80
Outline: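 CHO-K1 cells overexpressing human LPA1 and G15a, serum-starved 4 h, loaded with Fluo-8 AM plus 2.5 mM probenecid in HBSS/20 mM Hepes for 30 min at 37 °C. Compound preincubated 30 min, then LPA challenge at EC80; FLIPR calcium signal, % inhibition relative to DMSO and LPA controls.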

[3] = calcium mobilization on FLIPR Tetra, read-out: IC50
[4] = Table B3, read-out: Activity (IC50 class)
[5] = Table B1, read-out: Activity (IC50 class)

T1 sequence (Q92633 whole entry): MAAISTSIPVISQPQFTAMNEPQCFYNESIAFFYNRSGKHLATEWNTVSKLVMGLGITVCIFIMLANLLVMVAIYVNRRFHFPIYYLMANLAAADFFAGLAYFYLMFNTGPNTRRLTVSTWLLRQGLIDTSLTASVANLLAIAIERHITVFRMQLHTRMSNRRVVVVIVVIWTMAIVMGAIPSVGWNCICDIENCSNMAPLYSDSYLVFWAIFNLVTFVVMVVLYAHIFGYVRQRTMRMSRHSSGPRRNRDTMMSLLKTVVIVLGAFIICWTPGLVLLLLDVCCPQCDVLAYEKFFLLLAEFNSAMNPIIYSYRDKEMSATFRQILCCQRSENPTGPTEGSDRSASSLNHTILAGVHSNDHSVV

Row | SMILES | IC50 (human LPA1 [1]; Table B2, read-out: IC50) | IC50 (human LPA1 [2]; [3]) | IC50 (human LPA1 [2]; [4]) | IC50 (human LPA1 [1]; [5])
1 | COc1cc(-c2ccc(NC3(C(=O)O)CCOCC3)cc2CCC2CCOC2)cc(OC)c1C (single isomer, unassigned) [Compound 185, 4-((3′,5′-dimethoxy-4′-methyl-2-(2-(tetrahydrofuran-3-yl)ethyl)-[1,1′-biphenyl]-4-yl)amino)tetrahydro-2H-pyran-4-carboxylic acid] | 9.54 nM | 12.6 nM | < 100 nM | 
2 | COc1cc(-c2ccc(NCCC(=O)O)cc2COC2Cc3ccccc3C2)cc(OC)c1C [Compound 101, 3-((2-(((2,3-dihydro-1H-inden-2-yl)oxy)methyl)-3′,5′-dimethoxy-4′-methyl-[1,1′-biphenyl]-4-yl)amino)propanoic acid] | 27.2 nM | 340 nM | 100 to 1000 nM | < 1000 nM
3 | COc1cc(-c2ccc(NCCC(=O)O)cc2COCc2ccccc2)ccc1C(F)F [Compound 102] | 2490 nM |  |  | 1000 to 10000 nM
4 | COc1cc(OC)cc(-c2ccc(NCCC(=O)O)cc2COC2Cc3ccccc3C2)c1 [Compound 103] | 1540 nM |  |  | 1000 to 10000 nM
5 | COc1cc(OC)cc(-c2ccc(OCCC(=O)O)cc2COC2Cc3ccccc3C2)c1 [Compound 104] | 162 nM | 628 nM | 100 to 1000 nM | < 1000 nM
6 | COc1cc(-c2ccc(OCCC(=O)O)cc2COC2Cc3ccccc3C2)cc(OC)c1C [Compound 105, 3-((2-(((2,3-dihydro-1H-inden-2-yl)oxy)methyl)-3′,5′-dimethoxy-4′-methyl-[1,1′-biphenyl]-4-yl)oxy)propanoic acid] | 13.6 nM | 245 nM | 100 to 1000 nM | < 1000 nM
7 | COc1cc(-c2ccc(NC3(C(=O)O)CC3)cc2COC2Cc3ccccc3C2)cc(OC)c1C [Compound 109, 1-((2-(((2,3-dihydro-1H-inden-2-yl)oxy)methyl)-3′,5′-dimethoxy-4′-methyl-[1,1′-biphenyl]-4-yl)amino)cyclopropane-1-carboxylic acid] | 2.68 nM | 94.1 nM | < 100 nM | < 1000 nM
8 | COc1cc(-c2ccc(NC3(C(=O)O)CCOCC3)cc2COC2CC2)c(F)c(OC)c1C [Compound 256, 4-((2-(cyclopropoxymethyl)-2′-fluoro-3′,5′-dimethoxy-4′-methyl-[1,1′-biphenyl]-4-yl)amino)tetrahydro-2H-pyran-4-carboxylic acid] | 10.3 nM | 16.5 nM | < 100 nM | 
9 | CCOc1c(C)ccc(-c2ccc(NC3(C(=O)O)CCOCC3)cc2COC2CCCC2)c1C [Compound 280] | 18.6 nM | 8.12 nM | < 100 nM | 
10 | COc1cc(-c2ccc(NC3(C(=O)O)CCOCC3)cc2COC2CCCC2)c(C(F)F)c(OC)n1 [Compound 283] | 10.9 nM | 11.5 nM | < 100 nM | 
11 | CCCOc1cccc(-c2ccc(NC3(C(=O)O)CCOCC3)cc2COC2CCCC2)c1F [Compound 284] | 3.97 nM | 11.9 nM | < 100 nM | 
12 | Cc1c(OC2CC2)cccc1-c1ccc(NC2(C(=O)O)CCOCC2)cc1COC1CCCC1 [Compound 285] | 6.62 nM | 13.9 nM | < 100 nM | 
13 | Cc1c(OC2CC2)cccc1-c1ccc(NC2(C(=O)O)CCOCC2)cc1COC1CC1 [Compound 294, 4-((3′-cyclopropoxy-2-(cyclopropoxymethyl)-2′-methyl-[1,1′-biphenyl]-4-yl)amino)tetrahydro-2H-pyran-4-carboxylic acid] | 7.15 nM | 5.85 nM | < 100 nM | 
14 | CCOc1cc(OC)cc(-c2ccc(C3(C(=O)O)CC3)cc2COC2CCCC2)c1F [Compound 391] |  | 471 nM | 100 to 1000 nM | 
15 | Cc1ccc(-c2ccc(NC3(C(=O)O)CCOCC3)cc2COC2CC2)c(F)c1OC1CC1 [Compound 392] |  | 9.44 nM | < 100 nM | 
16 | CCCc1nccc(-c2ccc(NC3(C(=O)O)CCOCC3)cc2COC2CC2)c1F [Compound 393] |  | > 10000 nM | > 1000 nM | 
17 | CCOc1c(C)ccc(-c2ccc(NC3(C(=O)O)CCOCC3)cc2COCC(C)C)c1C [Compound 394] |  | 97.6 nM | < 100 nM | 
18 | CCOc1cc(OC)cc(-c2ccc(NC3(C(=O)O)CCOCC3)cc2COCC(C)C)c1F [Compound 395] |  | 7.94 nM | < 100 nM | 
19 | CCOc1c(C)c(OC)cc(-c2ccc(NC3(C(=O)O)CCOCC3)cc2COCC(C)C)c1F [Compound 396] |  | 27.5 nM | < 100 nM | 
20 | COc1cc(-c2ccc(NC3(C(=O)O)CCOCC3)cc2COCC(C)C)c(C)c(OC)c1C [Compound 397] |  | 73 nM | < 100 nM | 
21 | COc1cc(OC)c(Cl)c(-c2ccc(NC3(C(=O)O)CCOCC3)cc2COCC(C)C)c1 [Compound 398] |  | 104 nM | 100 to 1000 nM | 
22 | CCCCOCc1cc(NC2(C(=O)O)CCOCC2)ccc1-c1ccc(C)c(OCC)c1C [Compound 399] |  | 6.41 nM | < 100 nM | 
23 | CCCCOCc1cc(NC2(C(=O)O)CCOCC2)ccc1-c1cc(OC)c(C)c(OCC)c1F [Compound 400] |  | 5.37 nM | < 100 nM | 
24 | CCCCOCc1cc(NC2(C(=O)O)CCOCC2)ccc1-c1cc(OC)c(C)c(OC)c1C [Compound 401] |  | 5.71 nM | < 100 nM | 
25 | CCCCOCc1cc(NC2(C(=O)O)CCOCC2)ccc1-c1cc(OC)cc(OC)c1Cl [Compound 402] |  | 7.59 nM | < 100 nM | 
26 | CCOc1cncc(-c2ccc(NC3(C(=O)O)CCOCC3)cc2COCCC(C)C)c1C(F)F [Compound 413, 4-({4-[4-(difluoromethyl)-5-ethoxypyridin-3-yl]-3-[(3-methylbutoxy)methyl]phenyl}amino) oxane-4-carboxylic acid] |  | 5.79 nM | < 100 nM | 

Second part, the compound after the results:

Row | IC50 (human LPA1 [1]; Table B2, read-out: IC50) | IC50 (human LPA1 [2]; [3]) | IC50 (human LPA1 [2]; [4]) | IC50 (human LPA1 [1]; [5]) | SMILES
27 |  | 23.1 nM | < 100 nM |  | CCOc1cncc(-c2ccc(NC3(C(=O)O)CCOCC3)cc2COC2CC2)c1C(F)F [Compound 403]
28 |  | 13 nM | < 100 nM |  | CCCCOCc1cc(NC2(C(=O)O)CCOCC2)ccc1-c1cncc(OCC)c1C(F)F [Compound 404]
29 |  | 20 nM | < 100 nM |  | CCOc1cncc(-c2ccc(NC3(C(=O)O)CCC(F)(F)CC3)cc2COC2CC2)c1C(F)F [Compound 406]
30 |  | 96.5 nM | < 100 nM |  | CCOc1cncc(-c2ccc(NC3(C(=O)O)CCOCC3)cc2COC2CC2)c1C [Compound 407]
31 |  | 152 nM | 100 to 1000 nM |  | CCOc1c(C)ncc(-c2ccc(NC3(C(=O)O)CCOCC3)cc2COC2CC2)c1C [Compound 408]
32 |  | 229 nM | 100 to 1000 nM |  | CCOc1cncc(-c2ccc(NC3(C(=O)O)CCOCC3)c(F)c2COC2CC2)c1C(F)F [Compound 409]
33 |  | 179 nM | 100 to 1000 nM |  | CCOc1cncc(-c2c(C)cc(NC3(C(=O)O)CCOCC3)cc2COC2CC2)c1C(F)F [Compound 410]
34 |  | 5.2 nM | < 100 nM |  | CCOc1cncc(-c2ccc(NC3(C(=O)O)CCOCC3)cc2COC2Cc3ccccc3C2)c1C [Compound 411, 4-({3-[(2,3-dihydro-1H-inden-2-yloxy)methyl]-4-(5-ethoxy-4-methylpyridin-3-yl)phenyl}amino)oxane-4-carboxylic acid]
35 |  | 538 nM | 100 to 1000 nM |  | CCOc1cncc(-c2ccc(C3(C(=O)O)CC3)cc2COC2CCCC2)c1C(F)F [Compound 412]
36 |  | 112 nM | 100 to 1000 nM |  | CCOc1c(C)ncc(-c2ccc(NC3(C(=O)O)CC(F)(F)C3)cc2COC2CC2)c1C [Compound 414]
37 |  | 66.2 nM | < 100 nM |  | CCOc1cncc(-c2ccc(OC3(C(=O)O)CCOCC3)cc2COC2CC2)c1C(F)F [Compound 415]
38 |  | 8.79 nM | < 100 nM |  | CCOc1cncc(-c2ccc(NC3(C(=O)O)CCOCC3)cc2COC2CC3CC3C2)c1C (stereo not drawn) [Compound 416, 4-{[3-({bicyclo[3.1.0]hexan-3-yloxy}methyl)-4-(5-ethoxy-4-methylpyridin-3-yl)phenyl]amino}oxane-4-carboxylic acid]
39 |  | 35.8 nM | < 100 nM |  | CCOc1cncc(-c2ccc(NC3(C(=O)O)CCCC3)cc2COC2CC2)c1C [Compound 417]
